Structures are written as SMILES.

In the experiment the target is Transient receptor potential cation channel subfamily V member 4 (Homo sapiens, UniProt Q9HBA0). The experiment can be described thus: Inhibition Assay: Test Example 1: (1) The TRPV4 inhibitory activity was measured using CHO-K1 cells stably expressing human TRPV4 (hTRPV4/CHO cells). (2) In the day before the experimental day, frozen cell were thawed and washed with the culture medium (MEM-α, 10% FBS, 2 mmol/L GlutaMax, 50 unit Penicillin, 50 μg/mL Streptomycin). Then cells were suspended in the culture medium. (3) The 384-well plates which hTRPV4/CHO cells were seeded at densities of 4000 cells/well in the culture medium and cultured in a CO2 incubator in the presence of 5% CO2 at 37° C. for overnight was used as assay plates. (4) The assay plate was washed with assay buffer (Hanks, 20 mmol/L HEPES, 2.5 mmol/L probenecid, pH7.4), and the buffer were remained at 20 μL/well. (5) 10 μl of dye loading buffer (9 μmol/L Fluo 4-AM, 0.09% Pluronic F-127/assay buffer) was added to each well, then the assay plate was incubated in a CO2 incubator in the presence of 5% CO2 at 37° C. for one hour. (final 3 μmol/L Fluo4-AM). (6) The assay plate was washed with the assay buffer, and the buffers were remained at 20 μL/well. Then the assay plate was incubated for 10 min at room temperature. (7) Diluted compound solution was dispensed to each well in the compound plate, and mixed with built-in Pipette and Mixer of the Fluorescence analysis system FLIPR TETRA (Molecular devices). (8) After incubation for 5 min, 20 μL of 4α-PDD solution were applied to each well of assay plate and mixed with the FLIPR TETRA. (final 1 Î¼mol/L 4α-PDD). (9) The fluorescent intensity was measured with FLIPR TETRA system for 10 min from the point of time addition the compound solution, at Ex 470-495 nm, Em 515-575 nm wavelength. Format: cell-based.
Sequence of Transient receptor potential cation channel subfamily V member 4 (Q9HBA0 whole entry): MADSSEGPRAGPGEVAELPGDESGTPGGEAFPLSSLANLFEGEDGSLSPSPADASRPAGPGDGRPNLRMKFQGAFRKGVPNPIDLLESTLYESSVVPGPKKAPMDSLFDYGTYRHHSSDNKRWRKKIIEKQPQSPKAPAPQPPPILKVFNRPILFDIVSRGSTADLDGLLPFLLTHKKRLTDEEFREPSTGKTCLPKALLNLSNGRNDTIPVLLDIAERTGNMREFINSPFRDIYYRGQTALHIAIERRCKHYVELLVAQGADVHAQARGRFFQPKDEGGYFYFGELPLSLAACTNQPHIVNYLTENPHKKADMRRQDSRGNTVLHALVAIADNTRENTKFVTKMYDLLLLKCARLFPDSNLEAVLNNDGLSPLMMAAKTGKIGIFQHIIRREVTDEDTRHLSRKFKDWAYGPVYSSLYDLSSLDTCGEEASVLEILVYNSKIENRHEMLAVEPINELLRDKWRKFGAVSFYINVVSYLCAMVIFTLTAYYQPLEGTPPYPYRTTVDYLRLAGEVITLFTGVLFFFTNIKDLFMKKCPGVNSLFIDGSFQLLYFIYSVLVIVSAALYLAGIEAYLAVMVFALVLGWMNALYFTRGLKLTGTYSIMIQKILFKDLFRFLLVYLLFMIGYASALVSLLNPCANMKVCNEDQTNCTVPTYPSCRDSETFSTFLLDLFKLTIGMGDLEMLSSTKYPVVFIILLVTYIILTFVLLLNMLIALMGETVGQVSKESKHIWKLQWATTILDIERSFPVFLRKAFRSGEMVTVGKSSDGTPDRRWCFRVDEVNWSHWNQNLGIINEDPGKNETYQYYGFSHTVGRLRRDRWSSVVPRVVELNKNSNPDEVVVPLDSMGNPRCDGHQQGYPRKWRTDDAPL
Broadly, the IC50 is the point on the concentration scale where inhibition reaches its midpoint. A word on the Ki: it is a measure of affinity in units of concentration, obtained from inhibition or displacement. `CNCCCn1c(C(C)(C)C)cc(S(=O)(=O)NCc2cccc(C(F)(F)F)c2)c1C`: the IC50 worked out at 7 µM and the Ki was found to be 2.4 µM.
For `Cc1c(S(=O)(=O)NCc2cccc(C(F)(F)F)c2)cc(C(C)(C)C)n1CCCN1CCNCC1`, in that order: 8.9 µM and 3.1 µM.
As for `Cc1c(C(=O)Nc2cccc(C(F)(F)F)c2)nc(-c2ccccc2)n1CCCN1CCOCC1`, the IC50 came to 0.71 µM and the Ki came out at 0.32 µM.

Source of the values: ChEMBL document CHEMBL3886713, “Aromatic heterocyclic derivative having TRPV4-inhibiting activity” (2016).
